Target: T1, Excitatory amino acid transporter 3 (Homo sapiens, UniProt P43005)
T1 sequence (P43005 whole entry): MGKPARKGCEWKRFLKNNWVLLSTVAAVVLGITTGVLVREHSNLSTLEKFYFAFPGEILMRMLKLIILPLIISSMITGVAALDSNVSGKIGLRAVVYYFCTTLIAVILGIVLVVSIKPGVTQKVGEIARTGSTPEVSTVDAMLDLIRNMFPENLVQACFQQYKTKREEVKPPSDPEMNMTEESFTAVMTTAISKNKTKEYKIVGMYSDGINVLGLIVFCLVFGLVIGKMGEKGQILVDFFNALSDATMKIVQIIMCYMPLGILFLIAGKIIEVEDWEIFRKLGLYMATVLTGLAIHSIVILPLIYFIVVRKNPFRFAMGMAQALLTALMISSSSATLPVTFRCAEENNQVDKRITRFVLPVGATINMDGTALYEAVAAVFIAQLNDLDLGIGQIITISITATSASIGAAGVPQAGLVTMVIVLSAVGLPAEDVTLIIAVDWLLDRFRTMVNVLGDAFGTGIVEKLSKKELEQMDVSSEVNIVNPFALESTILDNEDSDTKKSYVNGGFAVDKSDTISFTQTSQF
Assay: Substrate uptake by the Excitatory Amino Acid Transporter 3 (EAAT3, SLC1A1) as assessed by the fluorescent FLIPR membrane potential dye in HEK-293 JumpIN-SLC1A1 cells (PubChem AID: 1794812)
Format: functional, cell-based, HEK293

| EC50 (read-out: EC50) [µM] | Structure (SMILES) | EC50 (hek293) |
| --- | --- | --- |
| – | N[C@@H](CC(=O)O)C(=O)O [ASPARTIC ACID] | Substrate: The Commpound Is Eliciting A Specific Response, But A Broader Concentration Range Is Needed To Calculate A Correct Ec50 |
| 161 | N[C@@H](CS)C(=O)O [CYSTEINE] | – |
| – | N[C@@H](CCC(=O)O)C(=O)O [GLUTAMIC ACID] | Substrate: The Commpound Is Eliciting A Specific Response, But A Broader Concentration Range Is Needed To Calculate A Correct Ec50 |

Reference: ChEMBL document CHEMBL5209575, “Membrane potential based assay for SLC1A1 using HEK-293 SLC1A1 OE cells” (2022)
